These results are taken from ChEMBL document CHEMBL4196183, “Discovery of New Allosteric Modulators of the Urotensinergic System through Substitution of the Urotensin II-Related Peptide (URP) Phenylalanine Residue” (J Med Chem, 2018).

For orientation: Emax means the greatest response seen or fitted, relative to the assay's reference.

Test [1] deals with T1, Urotensin-2 receptor (Rattus norvegicus) (UniProt P49684).
T1 sequence (whole entry): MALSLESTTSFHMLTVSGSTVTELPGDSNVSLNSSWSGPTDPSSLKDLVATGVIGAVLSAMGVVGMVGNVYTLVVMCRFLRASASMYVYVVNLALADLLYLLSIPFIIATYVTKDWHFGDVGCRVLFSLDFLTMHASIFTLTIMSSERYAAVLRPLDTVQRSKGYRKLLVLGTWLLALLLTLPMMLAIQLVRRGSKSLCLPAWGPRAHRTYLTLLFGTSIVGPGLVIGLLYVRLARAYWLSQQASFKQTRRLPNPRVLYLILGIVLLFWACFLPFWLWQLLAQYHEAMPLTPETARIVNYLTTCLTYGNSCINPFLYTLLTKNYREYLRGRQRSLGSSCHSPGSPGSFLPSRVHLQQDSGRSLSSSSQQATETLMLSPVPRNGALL
The test is described as follows: Agonist activity at UT receptor in Sprague-Dawley rat thoracic aortic ring assessed as induction of contraction at 10^-5M relative to KCl-induced contraction. It counts as functional.

Test [2] has as its target T1, Urotensin-2 receptor (Rattus norvegicus). Kind of test: Antagonist activity at UT receptor in Sprague-Dawley rat thoracic aortic ring assessed as reduction in urotensin-2-induced contraction by measuring Emax for human urotensin-2-induced contraction at 1 uM pre-incubated for 30 mins before urotensin-2 stimulation relative to KCl-induced contraction (reference value: 101 +/- 4%). Type of test: functional.

Test [3] shares this target. Kind of test: Antagonist activity at UT receptor in Sprague-Dawley rat thoracic aortic ring assessed as reduction in URP-induced contraction by measuring Emax for […] at 1 uM pre-incubated for 30 mins […] relative to KCl-induced contraction (reference value: 107 +/- 3%). It counts as functional.
Test [4] deals with T2, Urotensin-2 receptor (Homo sapiens) (UniProt Q9UKP6).
T2 sequence (whole entry): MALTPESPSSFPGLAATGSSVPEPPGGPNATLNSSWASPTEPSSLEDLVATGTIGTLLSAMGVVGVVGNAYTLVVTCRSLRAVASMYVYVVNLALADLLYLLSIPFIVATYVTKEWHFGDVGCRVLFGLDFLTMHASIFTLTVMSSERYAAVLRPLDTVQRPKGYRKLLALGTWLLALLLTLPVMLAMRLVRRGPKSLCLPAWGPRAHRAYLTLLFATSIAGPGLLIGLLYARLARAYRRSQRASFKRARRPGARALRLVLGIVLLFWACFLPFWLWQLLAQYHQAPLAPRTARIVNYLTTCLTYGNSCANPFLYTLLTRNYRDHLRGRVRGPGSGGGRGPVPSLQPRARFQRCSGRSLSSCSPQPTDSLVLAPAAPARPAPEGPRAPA
Kind of test: Agonist activity at human UT receptor expressed in HEK293 cells co-expressing Gq-polycistronic BRET biosensor assessed as induction of Gq activation measured for 5 mins by luminescence detection based BRET assay relative to 10 uM URP. It counts as functional, cell-based.

For test [5], the target named is T2, Urotensin-2 receptor (Homo sapiens). Kind of test: Agonist activity at human UT receptor expressed in HEK293 cells co-expressing G12-polycistronic BRET biosensor assessed as induction of G12 activation measured for 5 mins by luminescence detection based BRET assay relative to 10 uM URP. Type of test: functional, cell-based. (BRET reads energy transfer from a luciferase to a nearby fluorophore.)

Test [6] has the same target. Kind of test: Agonist activity at human UT receptor expressed in HEK293 cells co-expressing beta-arrestin1-polycistronic BRET biosensor assessed as induction of beta-arrestin1 recruitment measured for 5 mins by luminescence detection based BRET assay relative to 10 uM URP. It counts as functional, cell-based.
Test [7] has the same target. Kind of test: Selectivity index, change in deltalog(Tau/KA) for agonist activity at human UT receptor expressed in HEK293 cells co-expressing G12-polycistronic BRET biosensor assessed as induction of G12 activation by luminescence detection based BRET assay to deltalog(Tau/KA) for agonist activity at human UT receptor expressed in HEK293 cells co-expressing Gq-polycistronic BRET biosensor assessed as induction of Gq activation by luminescence detection based BRET assay. It counts as functional, cell-based.

For test [8] the target is unchanged. Kind of test: Bias factor, ratio of deltalog(Tau/KA) for agonist activity at human UT receptor expressed in HEK293 cells co-expressing G12-polycistronic BRET biosensor assessed as induction of G12 activation by luminescence detection based BRET assay to deltalog(Tau/KA) for agonist activity at human UT receptor expressed in HEK293 cells co-expressing Gq-polycistronic BRET biosensor assessed as induction of Gq activation by luminescence detection based BRET assay. It counts as functional, cell-based.

Test [9] shares this target. The test is described as follows: Bias factor, ratio of deltalog(Tau/KA) for agonist activity at human UT receptor expressed in HEK293 cells co-expressing Gq-polycistronic BRET biosensor assessed as induction of Gq activation by luminescence detection based BRET assay to deltalog(Tau/KA) for agonist activity at human UT receptor expressed in HEK293 cells co-expressing G12-polycistronic BRET biosensor assessed as induction of G12 activation by luminescence detection based BRET assay. Type of test: functional, cell-based.

Test [10] has the same target. The test is described as follows: Selectivity index, change in deltalog(Tau/KA) for agonist activity at human UT receptor expressed in HEK293 cells co-expressing Gq-polycistronic BRET biosensor assessed as induction of Gq activation by luminescence detection based BRET assay to deltalog(Tau/KA) for agonist activity at human UT receptor expressed in HEK293 cells co-expressing beta-arrestin1-polycistronic BRET biosensor assessed as induction of beta-arrestin1 recruitment by luminescence detection based BRET assay. It counts as functional, cell-based.

The target is the same in test [11]. The test is described as follows: Bias factor, ratio of deltalog(Tau/KA) for agonist activity at human UT receptor expressed in HEK293 cells co-expressing Gq-polycistronic BRET biosensor assessed as induction of Gq activation by luminescence detection based BRET assay to deltalog(Tau/KA) for agonist activity at human UT receptor expressed in HEK293 cells co-expressing beta-arrestin1-polycistronic BRET biosensor assessed as induction of beta-arrestin1 recruitment by luminescence detection based BRET assay. Type of test: functional, cell-based.

Test [12] shares this target. Kind of test: Bias factor, ratio of deltalog(Tau/KA) for agonist activity at human UT receptor expressed in HEK293 cells co-expressing beta-arrestin1-polycistronic BRET biosensor assessed as induction of beta-arrestin1 recruitment by luminescence detection based BRET assay to deltalog(Tau/KA) for agonist activity at human UT receptor expressed in HEK293 cells co-expressing Gq-polycistronic BRET biosensor assessed as induction of Gq activation by luminescence detection based BRET assay. It counts as functional, cell-based.

Test [13] has the same target. The test is described as follows: Selectivity index, change in deltalog(Tau/KA) for agonist activity at human UT receptor expressed in HEK293 cells co-expressing beta-arrestin1-polycistronic BRET biosensor assessed as induction of beta-arrestin1 recruitment by luminescence detection based BRET assay to deltalog(Tau/KA) for agonist activity at human UT receptor expressed in HEK293 cells co-expressing G12-polycistronic BRET biosensor assessed as induction of G12 activation by luminescence detection based BRET assay to. Type of test: functional, cell-based.

Test [14] has the same target. The test is described as follows: Bias factor, ratio of deltalog(Tau/KA) for agonist activity at human UT receptor expressed in HEK293 cells co-expressing beta-arrestin1-polycistronic BRET biosensor assessed as induction of beta-arrestin1 recruitment by luminescence detection based BRET assay to deltalog(Tau/KA) for agonist activity at human UT receptor expressed in HEK293 cells co-expressing G12-polycistronic BRET biosensor assessed as induction of G12 activation by luminescence detection based BRET assay. Type of test: functional, cell-based.

For test [15] the target is unchanged. Kind of test: Bias factor, ratio of deltalog(Tau/KA) for agonist activity at human UT receptor expressed in HEK293 cells co-expressing G12-polycistronic BRET biosensor assessed as induction of G12 activation by luminescence detection based BRET assay to deltalog(Tau/KA) for agonist activity at human UT receptor expressed in HEK293 cells co-expressing beta-arrestin1-polycistronic BRET biosensor assessed as induction of beta-arrestin1 recruitment by luminescence detection based BRET assay. Type of test: functional, cell-based.

For test [16], the target named is T1, Urotensin-2 receptor (Rattus norvegicus). The test is described as follows: Agonist activity at UT receptor in Sprague-Dawley rat thoracic aortic ring assessed as induction of contraction relative to KCl-induced contraction. Type of test: functional.

Turning to `CC(C)[C@H](NC(=O)[C@@H]1CSSC[C@H](NC(=O)[C@H](N)CC(=O)O)C(=O)N[C@@H](Cc2ccc(I)cc2)C(=O)N[C@@H](Cc2c[nH]c3ccccc23)C(=O)N[C@@H](CCCCN)C(=O)N[C@@H](Cc2ccc(O)cc2)C(=O)N1)C(=O)O`, the Emax was found to be 49% in test [1]; 95% in test [2]; 107% in test [3]; 91% in test [4]; 91% in [5]; 97% in [6]. For the same compound, in test [7], the deltalog(Tau/KA) was found to be 0.64. Moreover, the fold change (FC) worked out at 4.3 in [8]; 0.2 in [9]; 0.2 in test [11]; 5.3 in test [12]; 1.2 in [14]; 0.8 in test [15]. Besides, in [10], the selectivity index, deltadeltalog(Tau/KA) was -0.73. Further, the deltadeltalog(Tau/KA) (beta-arrestin1 selectivity index) in test [13] was 0.09.
Take `CC(C)[C@H](NC(=O)[C@@H]1CSSC[C@H](NC(=O)[C@@H](C)N)C(=O)N[C@@H](Cc2ccc(I)cc2)C(=O)N[C@@H](Cc2c[nH]c3ccccc23)C(=O)N[C@@H](CCCCN)C(=O)N[C@@H](Cc2ccc(O)cc2)C(=O)N1)C(=O)O`: the Emax in [16] came to 20%; in test [2], 52%; in test [3], 100%; in [4], 87%; in test [5], 68%; in test [6] it was 99%. In addition, the deltalog(Tau/KA) in test [7] came out at 0.89. Also, the fold change (FC) turned out to be 7.8 in test [8]; 0.1 in test [9]; 0.1 in [11]; 8.6 in test [12]; 1.1 in test [14]; 0.9 in test [15]. In addition, the selectivity index, deltadeltalog(Tau/KA) in test [10] is -0.94. Further, in test [13], the deltadeltalog(Tau/KA) (beta-arrestin1 selectivity index) came out at 0.04.
